Reference: patent US11767322B2 (BRISTOL-MYERS SQUIBB COMPANY, priority 2020, dated 2023)
Read-outs that look alike come from different tables or passages of the source.

What was measured:
[1] = target: T1, His-GST-TVMV-hRIPK1(1-324) (Homo sapiens, UniProt Q13546); assay: biochemical; assay type: binding
T1 construct: The coding region of human RIPK1(1-324) flanked by NdeI site at 5′ end; made in house; host or cells: Spodoptera frugiperda Sf9 insect cells (baculovirus, Bac-to-Bac)
T1 sequence (Q13546 1-324): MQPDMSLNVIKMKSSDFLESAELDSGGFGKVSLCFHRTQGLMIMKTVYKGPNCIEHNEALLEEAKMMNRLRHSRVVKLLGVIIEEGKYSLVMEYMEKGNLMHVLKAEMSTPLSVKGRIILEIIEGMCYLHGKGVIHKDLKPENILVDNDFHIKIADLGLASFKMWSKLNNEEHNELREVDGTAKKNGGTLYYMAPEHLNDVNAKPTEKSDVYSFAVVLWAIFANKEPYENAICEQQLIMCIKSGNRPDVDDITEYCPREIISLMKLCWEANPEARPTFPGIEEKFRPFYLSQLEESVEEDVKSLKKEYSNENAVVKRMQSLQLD

[2] = tested on: MLKL phosphorylation in HT29-L23 human colorectal adenocarcinoma cells; assay: MLKL phosphorylation high-content assay; assay type: cell-based
[3] = HTRF probe displacement, 1 h at rt, read-out: RIPK1 IC50
[4] = read-out: pMLKL IC50, HT29-L23 cells, necroptosis induced with TNFα, SMAC mimetic and Z-VAD, 6 h, maximal inhibition defined by Nec1s
[5] = Homo sapiens, 6 h, read-out: pMLKL IC50, HT29-L23 cells, necroptosis induced with TNFα, SMAC mimetic and Z-VAD, 6 h, maximal inhibition defined by Nec1s
[6] = HT29-L23 cells, necroptosis induced with TNFα, SMAC mimetic and Z-VAD, 6 h, maximal inhibition defined by Nec1s, read-out: pMLKL IC50
[7] = Homo sapiens, 6 h, HT29-L23 cells, necroptosis induced with TNFα, SMAC mimetic and Z-VAD, 6 h, maximal inhibition defined by Nec1s, read-out: pMLKL IC50

In the case of `[2H]C([2H])(CC([2H])(O)c1ccc(Cl)cc1)NC(=O)c1c(Cl)ccc(-c2ccn3nc(N)nc3c2)c1F` (single isomer, unassigned) [Example 76, 3-(2-amino-[1,2,4]triazolo[1,5-a]pyridin-7-yl)-6-chloro-N-(3-(4-chlorophenyl)-3-hydroxypropyl-1,1,3-d3)-2-fluorobenzamide], the IC50 [1, 3] is reported as 1.5 nM and the IC50 [2, 4] is reported as 3.3 nM.
Compound `Cc1ccc(-c2ccn3nc(N)nc3c2)c(F)c1C(=O)NCC(F)(F)C(N)c1ccc(F)cc1` (centres unmarked) [Example 275, N-(3-amino-2,2-difluoro-3-(4-fluorophenyl)propyl)-3-(2-amino-[1,2,4]triazolo[1,5-a]pyridin-7-yl)-2-fluoro-6-methylbenzamide] has an IC50 [1, 3] of 6.5 nM and an IC50 [2, 5] of 1.5 nM.
With `Cc1ccc(-c2ccn3nc(N)nc3c2)c(F)c1C(=O)NCCC(O)c1cccc(C#N)c1` (centres unmarked) [Example 140, 3-{2-amino-[1,2,4]triazolo[1,5-a]pyridin-7-yl}-N-[3-(3-cyanophenyl)-3-hydroxypropyl]-2-fluoro-6-methylbenzamide] the IC50 [1, 3] was 0.6 nM and the IC50 [2, 5] was 13 nM.
Work on `[2H]C([2H])([2H])c1ccc(-c2ccn3nc(N)nc3c2)c(F)c1C(=O)NCC(F)(F)C(O)(c1ccc(F)cc1)C([2H])([2H])[2H]` (single isomer, unassigned) [Example 243, 3-(2-amino-[1,2,4]triazolo[1,5-a]pyridin-7-yl)-N-(2,2-difluoro-3-(4-fluorophenyl)-3-hydroxybutyl-4,4,4-d3)-2-fluoro-6-(methyl-d3)benzamide] yielded an IC50 [1, 3] of 4.7 nM and an IC50 [2, 5] of 1.2 nM.
For `[2H]C([2H])([2H])C(O)(c1ccc(F)cc1)C(F)CNC(=O)c1c(C(F)F)ccc(-c2ccn3nc(N)nc3c2)c1F` (single isomer, unassigned) [Example 195, 3-(2-amino-[1,2,4]triazolo[1,5-a]pyridin-7-yl)-6-(difluoromethyl)-2-fluoro-N-(2-fluoro-3-(4-fluorophenyl)-3-hydroxybutyl-4,4,4-d3)benzamide], the IC50 [1, 3] was 8.4 nM and the IC50 [2, 5] was 1 nM.
In the case of `[2H]C([2H])([2H])c1cccc(C(O)C(F)(F)CNC(=O)c2c(C([2H])([2H])[2H])ccc(-c3ccn4nc(N)nc4c3)c2F)c1F` (single isomer, unassigned) [Example 206, 3-(2-amino-[1,2,4]triazolo[1,5-a]pyridin-7-yl)-N-(2,2-difluoro-3-(2-fluoro-3-(methyl-d3)phenyl)-3-hydroxypropyl)-2-fluoro-6-(methyl-d3)benzamide], the IC50 [1, 3] is reported as 7.7 nM.
In the case of `[2H]C([2H])([2H])c1ccc(-c2ccn3nc(N)nc3c2)c(F)c1C(=O)NCC1(C(O)c2ccc(F)cc2)CC1` (single isomer, unassigned) [Example 308, 3-(2-amino-[1,2,4]triazolo[1,5-a]pyridin-7-yl)-2-fluoro-N-((1-((4-fluorophenyl) (hydroxy)methyl)cyclopropyl)methyl)-6-(methyl-d3)benzamide], the IC50 [1, 3] is reported as 12 nM and the IC50 [2, 4] is reported as 9 nM.
`COc1ncc(-c2ccn3nc(N)nc3c2)cc1C(=O)NCC[C@H](O)c1ccc(Cl)cc1` [Example 157] showed an IC50 ([1]; Table 23, representative compounds from WO2018/148626, read-out: RIPK1 IC50) of 59 nM.
In the case of `[2H]C([2H])([2H])c1ccc(-c2ccn3nc(N)nc3c2)c(F)c1C(=O)NCC(F)(F)C(C)(O)c1ccc(F)cc1` (single isomer, unassigned) [Example 242, 3-(2-amino-[1,2,4]triazolo[1,5-a]pyridin-7-yl)-N-(2,2-difluoro-3-(4-fluorophenyl)-3-hydroxybutyl)-2-fluoro-6-(methyl-d3)benzamide], the IC50 [1, 3] is reported as 9.1 nM and the IC50 [2, 4] is reported as 1 nM.
For `Cc1ccc(-c2ccn3nc(N)nc3c2)c(F)c1C(=O)NCCC(O)c1ccc(Cl)c(Cl)c1` (centres unmarked) [Example 32, 3-(2-amino-[1,2,4]triazolo[1,5-a]pyridin-7-yl)-N-(3-(3,4-dichlorophenyl)-3-hydroxypropyl)-2-fluoro-6-methylbenzamide], the IC50 [1, 3] was 2.2 nM.
With `[2H]C([2H])([2H])OC(c1ccc(F)cc1)C(F)(F)CNC(=O)c1c(C)ccc(-c2ccn3nc(N)nc3c2)c1F` (single isomer, unassigned) [Example 235, 3-(2-amino-[1,2,4]triazolo[1,5-a]pyridin-7-yl)-N-(2,2-difluoro-3-(4-fluorophenyl)-3-(methoxy-d3)propyl)-2-fluoro-6-methylbenzamide] the IC50 [1, 3] was 4.3 nM and the IC50 [2, 5] was 0.6 nM.
In the case of `Cc1ccc(-c2ccn3nc(N)nc3c2)c(F)c1C(=O)NCC(O)C(F)(F)c1ccc(F)cc1` (single isomer, unassigned) [Example 291, 3-(2-amino-[1,2,4]triazolo[1,5-a]pyridin-7-yl)-N-(3,3-difluoro-3-(4-fluorophenyl)-2-hydroxypropyl)-2-fluoro-6-methylbenzamide], the IC50 [1, 3] is reported as 1 nM, the IC50 ([1]; Table 22, compounds of the present invention, read-out: RPIK1 IC50) is reported as 1 nM and the IC50 [2, 4] is reported as 2.4 nM. The IC50 ([2]; read-out: pMLKL IC50, Table 22, compounds of the present invention) was 2.4 nM.
`Cc1ccc(-c2ccn3nc(N)nc3c2)c(F)c1C(=O)NCC(F)(F)C(O)c1c(F)cc(F)cc1F` (single isomer, unassigned) [Example 284, 3-(2-amino-[1,2,4]triazolo[1,5-a]pyridin-7-yl)-N-(2,2-difluoro-3-hydroxy-3-(2,4,6-trifluorophenyl)propyl)-2-fluoro-6-methylbenzamide] was tested, and the IC50 [1, 3] was 3.5 nM and the IC50 [2, 4] was 1.1 nM.
Work on `CC(O)(c1ccc(F)cc1)C(F)(F)CNC(=O)c1c(Cl)ccc(-c2ccn3nc(N)nc3c2)c1F` (centres unmarked) [Example 87, 3-(2-amino-[1,2,4]triazolo[1,5-a]pyridin-7-yl)-6-chloro-N-(2,2-difluoro-3-(4-fluorophenyl)-3-hydroxybutyl)-2-fluorobenzamide] yielded an IC50 [1, 3] of 8.6 nM.
`Cc1ccc(-c2ccn3nc(N)nc3c2)c(F)c1C(=O)NCC(F)(F)C(C)(O)c1ccc(F)cc1` (racemic) [Example 18, 3-(2-amino-[1,2,4]triazolo[1,5-a]pyridin-7-yl)-N-(2,2-difluoro-3-(4-fluorophenyl)-3-hydroxybutyl)-2-fluoro-6-methylbenzamide] showed an IC50 [1, 3] of 8.9 nM.
In the case of `Nc1nc2cc(-c3ccc(Cl)c(C(=O)NCC(F)(F)C(O)C4CCC(F)(F)CC4)c3F)ccn2n1` (centres unmarked) [Example 256, 3-(2-amino-[1,2,4]triazolo[1,5-a]pyridin-7-yl)-6-chloro-N-(3-(4,4-difluorocyclohexyl)-2,2-difluoro-3-hydroxypropyl)-2-fluorobenzamide], the IC50 [1, 3] is reported as 3.2 nM.
Work on `Cc1ccc(C(O)C(F)(F)CNC(=O)c2c(Cl)ccc(-c3ccn4nc(N)nc4c3)c2F)cc1` (centres unmarked) [Example 172, 3-(2-amino-[1,2,4]triazolo[1,5-a]pyridin-7-yl)-6-chloro-N-(2,2-difluoro-3-hydroxy-3-(p-tolyl)propyl)-2-fluorobenzamide] yielded an IC50 [1, 3] of 1.3 nM.
`COc1ccc(-c2ccn3nc(N)nc3c2)c(F)c1C(=O)NCC(F)(F)C(O)c1ccc(F)cc1` (single isomer, unassigned) [Example 125, 3-(2-amino-[1,2,4]triazolo[1,5-a]pyridin-7-yl)-N-(2,2-difluoro-3-(4-fluorophenyl)-3-hydroxypropyl)-2-fluoro-6-methoxybenzamide] showed an IC50 [2, 6] of 2.9 nM.
Compound `Cc1c(F)cc(-c2ccn3nc(N)nc3c2)cc1C(=O)NCCC(C)(O)c1ccccc1` (centres unmarked) [Example 96, 5-(2-amino-[1,2,4]triazolo[1,5-a]pyridin-7-yl)-3-fluoro-N-(3-hydroxy-3-phenylbutyl)-2-methylbenzamide] has an IC50 [2, 7] of 39 nM.
`COc1ncc(-c2ccn3nc(N)nc3c2)cc1C(=O)NC(C)CCc1ccccc1` (centres unmarked) [Example 101] showed an IC50 ([2]; Homo sapiens, Table 23, representative compounds from WO2018/148626, read-out: pMLKL IC50) of 82 nM.
`COc1c(-c2ccc(C)c(C(=O)NCC[C@H](O)c3ccc(Cl)cc3)c2F)ccn2nc(N)nc12` [compound 133] showed an IC50 [1, 3] of 3.8 nM.
Work on `Cc1c(C(=O)NCC(F)(F)C(O)c2ccc(F)cc2)cc(-c2ccn3nc(N)nc3c2)c(F)c1F` (single isomer, unassigned) [Example 107, 5-(2-amino-[1,2,4]triazolo[1,5-a]pyridin-7-yl)-N-(2,2-difluoro-3-(4-fluorophenyl)-3-hydroxypropyl)-3,4-difluoro-2-methylbenzamide] yielded an IC50 [2, 6] of 0.4 nM.
Compound `CC(CCNC(=O)c1cccc(-c2ccn3nc(N)nc3c2)c1)c1ccccc1` (centres unmarked) [Example 316, 3-(2-amino-[1,2,4]triazolo[1,5-a]pyridin-7-yl)-N-(3-phenylbutyl)benzamide] has an IC50 [2, 5] of 25 nM and an IC50 ([2]; Homo sapiens, read-out: pMLKL IC50, Table 22, compounds of the present invention) of 25 nM.
`Nc1nc2cc(-c3ccc(Cl)c(C(=O)NCC(F)(F)[C@H](F)c4ccc(F)cc4)c3F)ccn2n1` [Example 288, (R)-3-(2-amino-[1,2,4]triazolo[1,5-a]pyridin-7-yl)-6-chloro-2-fluoro-N-(2,2,3-trifluoro-3-(4-fluorophenyl)propyl)benzamide] showed an IC50 [2, 7] of 1 nM.
`[2H]C([2H])([2H])c1ccc(-c2ccn3nc(N)nc3c2)c(F)c1C(=O)NC[C@@H](F)[C@](C)(O)c1ccc(F)cc1` [Example 214, 3-(2-amino-[1,2,4]triazolo[1,5-a]pyridin-7-yl)-2-fluoro-N-((2R,3R)-2-fluoro-3-(4-fluorophenyl)-3-hydroxybutyl)-6-(methyl-d3)benzamide] was tested, and the IC50 [2, 7] was 0.9 nM.
